According to the supplement of paper PMC10307832:

How the values were obtained:
Test in all cases: relative viability (nuclei count vs DMSO), 5 days (fraction); higher = more cells survive
KN-93 + Pictilisib = compound: CN(C/C=C/C1=CC=C(C=C1)Cl)CC2=CC=CC=C2N(CCO)S(=O)(=O)C3=CC=C(C=C3)OC [KN-93] + CS(=O)(=O)N1CCN(Cc2cc3nc(-c4cccc5[nH]ncc45)nc(N4CCOCC4)c3s2)CC1 [Pictilisib] (partner 1 µM)
Outline: (§1)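 The day after seeding in 1536-well plates, lung cancer cell lines were treated by pin tool with a single drug, or with a fixed anchor-drug dose together with five library-drug doses (not always all listed) in √10 steps. After 5 days, a combined fix-and-stain solution (final 0.05% Triton X-100, 1% formaldehyde, 1 ug/ml Hoechst) was added. Nuclei counted on 4× images gave relative viability as treated counts over vehicle counts, reported as the median of duplicate plates.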

KN-93 + Phenformin = compound: CN(C/C=C/C1=CC=C(C=C1)Cl)CC2=CC=CC=C2N(CCO)S(=O)(=O)C3=CC=C(C=C3)OC [KN-93] + N=C(N)NC(=N)NCCc1ccccc1 [Phenformin] (partner 250 µM)
Outline: as §1

KN-93 + Crizotinib = compound: CN(C/C=C/C1=CC=C(C=C1)Cl)CC2=CC=CC=C2N(CCO)S(=O)(=O)C3=CC=C(C=C3)OC [KN-93] + C[C@@H](Oc1cc(-c2cnn(C3CCNCC3)c2)cnc1N)c1c(Cl)ccc(F)c1Cl [Crizotinib] (partner 1 µM)
Outline: as §1

KN-93 + Linsitinib = compound: CN(C/C=C/C1=CC=C(C=C1)Cl)CC2=CC=CC=C2N(CCO)S(=O)(=O)C3=CC=C(C=C3)OC [KN-93] + C[C@]1(O)C[C@@H](c2nc(-c3ccc4ccc(-c5ccccc5)nc4c3)c3c(N)nccn32)C1 [Linsitinib] (partner 1 µM)
Outline: as §1

KN-93 + Luminespib = compound: CN(C/C=C/C1=CC=C(C=C1)Cl)CC2=CC=CC=C2N(CCO)S(=O)(=O)C3=CC=C(C=C3)OC [KN-93] + CCNC(=O)c1noc(-c2cc(C(C)C)c(O)cc2O)c1-c1ccc(CN2CCOCC2)cc1 [Luminespib] (partner 0.01 µM)
Outline: as §1

Row | Cell Line | relative viability (KN-93 + Pictilisib; first compound 0.08 µM) | relative viability (KN-93 + Pictilisib; first compound 0.253 µM) | relative viability (KN-93 + Pictilisib; first compound 2.53 µM) | relative viability (KN-93 + Pictilisib; first compound 8 µM) | relative viability (KN-93 + Phenformin; first compound 0.08 µM) | relative viability (KN-93 + Phenformin; first compound 0.253 µM) | relative viability (KN-93 + Phenformin; first compound 2.53 µM) | relative viability (KN-93 + Phenformin; first compound 8 µM) | relative viability (KN-93 + Crizotinib; first compound 0.08 µM) | relative viability (KN-93 + Crizotinib; first compound 0.253 µM) | relative viability (KN-93 + Crizotinib; first compound 2.53 µM) | relative viability (KN-93 + Crizotinib; first compound 8 µM) | relative viability (KN-93 + Linsitinib; first compound 0.08 µM) | relative viability (KN-93 + Linsitinib; first compound 0.253 µM) | relative viability (KN-93 + Linsitinib; first compound 2.53 µM) | relative viability (KN-93 + Linsitinib; first compound 8 µM) | relative viability (KN-93 + Luminespib; first compound 0.08 µM) | relative viability (KN-93 + Luminespib; first compound 0.253 µM) | relative viability (KN-93 + Luminespib; first compound 2.53 µM) | relative viability (KN-93 + Luminespib; first compound 8 µM)
1 | HOP-62 | 0.626 | 0.741 | 0.968 | 0.428 | 0.525 | 0.835 | 0.849 | 0.741 | 0.936 | 1.09 | 1.15 | 0.952 | 0.938 | 1.15 | 1.12 | 0.982 | 0.842 | 1.13 | 0.995 | 0.903
2 | NCI-H358 | 0.39 | 0.381 | 0.327 | 0.28 | 0.32 | 0.444 | 0.384 | 0.251 | 0.565 | 0.568 | 0.519 | 0.426 | 0.631 | 0.81 | 0.634 | 0.353 | 0.289 | 0.53 | 0.273 | 0.266
3 | NCI-H1944 | 0.372 | 0.292 | 0.332 | 0.34 | 0.172 | 0.216 | 0.218 | 0.195 | 1.24 | 1.24 | 1.18 | 0.953 | 1.29 | 1.21 | 1.11 | 1.02 | 0.741 | 0.699 | 0.729 | 0.43
4 | HCC-78 | 0.251 | 0.185 | 0.193 | 0.182 | 0.769 | 0.664 | 0.636 | 0.652 | 0.336 | 0.312 | 0.37 | 0.312 | 0.489 | 0.507 | 0.549 | 0.374 |  |  |  | 
5 | NCI-H1703 | 0.257 | 0.307 | 0.211 | 0.247 |  |  |  |  | 0.677 | 1.03 | 0.911 | 0.225 | 1.14 |  | 0.976 | 0.389 |  |  |  | 
6 | LCLC-97TM1 | 0.176 |  | 0.182 | 0.156 | 0.418 | 0.494 | 0.488 | 0.407 | 0.321 |  | 0.379 | 0.255 | 0.162 |  | 0.2 | 0.142 | 0.717 | 0.845 | 0.849 | 0.714
7 | IA-LM | 0.27 | 0.309 | 0.767 | 0.349 |  |  |  |  | 0.745 | 0.822 | 0.975 | 0.431 | 0.608 | 0.495 | 0.463 | 0.827 |  |  |  | 
8 | NCI-H441 | 0.356 | 0.53 | 0.591 | 0.3 | 0.828 | 1.06 | 0.921 | 0.779 | 0.716 | 0.879 | 0.76 | 0.565 | 0.48 | 0.818 | 0.799 | 0.245 | 0.295 | 0.417 | 0.36 | 0.287
9 | ABC-1 | 0.638 | 0.721 | 0.738 | 0.264 | 0.248 | 0.242 | 0.248 | 0.216 | 1.05 | 1.28 | 0.498 | 0.219 | 0.889 | 0.717 | 0.727 | 0.362 | 0.701 | 0.752 | 0.368 | 0.271
